Measurements: US12622948B2 (SUN PHARMACEUTICAL INDUSTRIES LIMITED, priority 2020, dated 2026)
Marks after values point to notes of the source that are not given here.

Key:
[1] = tested on: type 2 diabetic mouse (db/db) model; experiment: Efficacy study in db/db mice at 10 nM/kg dose (blood glucose, body weight, food intake); format: in vivo
Description: The effect of compounds of present invention on blood glucose, food intake and body weight was studied in mice. This study was performed in a type 2 diabetic mouse (db/db) model. […] Baseline blood glucose was measured from all the animals. […] All the animals were administered with test items subcutaneously. […] Delta blood glucose (mM) was calculated.

[2] = tested on: type 2 diabetic mouse (db/db) model; experiment: Efficacy study in db/db mice at 3 and 20 nM/kg dose (blood glucose, body weight, food intake); format: in vivo
Description: The effect of compounds of present invention on blood glucose, food intake and body weight was studied on mice. This study was performed in type 2 diabetic mouse (db/db) model. […] Baseline blood glucose was measured from all the animals. All animals were administered with test items subcutaneously. […] Delta blood glucose (mM) was calculated. Body weight changes and cumulative food consumption was measured at 72 hr post treatment.

[3] = Study 1, db/db mice, 10 nM/kg s.c.
[4] = Study 1, db/db mice, 10 nM/kg s.c., 48 hr
[5] = Study 1, db/db mice, 10 nM/kg s.c., 96 hr
[6] = Study 2, db/db mice, 10 nM/kg s.c. single dose
[7] = Study 2, db/db mice, 10 nM/kg s.c. single dose, 48 hr
[8] = Study 2, db/db mice, 10 nM/kg s.c. single dose, 96 hr
[9] = db/db mice, 10 nM/kg s.c., vs diabetic control

## Tirzepatide [reference compound]
[1]; [3]
  Cumulative food Intake (g) 0-48 hr. vs. Baseline, Mean: 4.9*** g
  Cumulative food Intake (g) 0-96 hr. vs. Baseline, Mean: 13.0*** g
[1]; [4]
  Body Wt. Change (%) 48 hr. vs. Baseline, Mean: −4.2*** %
[1]; [5]
  Body Wt. Change (%) 96 hr. vs. Baseline, Mean: −2.8*** %
[2]; 3 nM/kg s.c.
  Cumulative Food Intake (g), 0-72 hr, Mean: 9.6*** g
[2]; 3 nM/kg s.c., 72 hr
  Body weight change (%) 72 hr vs. Baseline, Mean: −3.4*** %
[2]; 20 nM/kg s.c.
  Cumulative Food Intake (g), 0-72 hr, Mean: 8.4*** g
[2]; 20 nM/kg s.c., 72 hr
  Body weight change (%) 72 hr vs. Baseline, Mean: −4.9*** %

## CCC[C@H](NC(=O)[C@@H](NC(=O)[C@H](CO)NC(=O)[C@H](Cc1ccc(O)cc1)NC(=O)[C@H](CC(=O)O)NC(=O)[C@H](CO)NC(=O)[C@@H](NC(=O)[C@H](Cc1ccccc1)NC(=O)[C@@H](NC(=O)CNC(=O)[C@H](CCC(=O)O)NC(=O)C(C)(C)NC(=O)[C@@H](N)Cc1ccc(O)cc1)[C@@H](C)O)[C@@H](C)O)[C@@H](C)CC)C(=O)N[C@@H](CC(C)C)C(=O)N[C@@H](CC(=O)O)C(=O)N[C@@H](CCCCN)C(=O)N[C@H](C(=O)N[C@@H](C)C(=O)N[C@@H](CCC(N)=O)C(=O)N[C@@H](CCCCNC(=O)COCCOCCNC(=O)C(C)(C)NC(=O)CC[C@H](NC(=O)CCCCCCCCCCCCCCCCCCC(=O)O)C(=O)O)C(=O)N[C@@H](C)C(=O)N[C@@H](Cc1ccccc1)C(=O)N[C@H](C(=O)N[C@@H](CCC(N)=O)C(=O)N[C@@H](Cc1c[nH]c2ccccc12)C(=O)N[C@@H](CC(C)C)C(=O)N[C@H](C(=O)N[C@@H](C)C(=O)NCC(=O)NCC(=O)N1CCC[C@H]1C(=O)N[C@@H](CO)C(=O)N[C@@H](CO)C(=O)NCC(=O)N[C@@H](C)C(=O)N1CCC[C@H]1C(=O)N1CCC[C@H]1C(=O)N1CCC[C@H]1C(=O)N[C@@H](CO)C(N)=O)[C@@H](C)CC)C(C)C)[C@@H](C)CC [Compound 1]
[1]; [3]
  Cumulative food Intake (g) 0-48 hr. vs. Baseline, Mean: 7.5*** g
  Cumulative food Intake (g) 0-96 hr. vs. Baseline, Mean: 13.9*** g
[1]; Study 1, db/db mice, 10 nM/kg s.c., 0 hr (baseline)
  Delta Blood Glucose (mM) Mean: 0 mM
[1]; Study 1, db/db mice, 10 nM/kg s.c., 4 hr
  Delta Blood Glucose (mM) Mean: −12.7*** mM
[1]; Study 1, db/db mice, 10 nM/kg s.c., 8 hr
  Delta Blood Glucose (mM) Mean: −12.0*** mM
[1]; Study 1, db/db mice, 10 nM/kg s.c., 12 hr
  Delta Blood Glucose (mM) Mean: −10.5*** mM
[1]; Study 1, db/db mice, 10 nM/kg s.c., 24 hr
  Delta Blood Glucose (mM) Mean: −15.5*** mM
[1]; [4]
  Body Wt. Change (%) 48 hr. vs. Baseline, Mean: −5.1*** %
  Delta Blood Glucose (mM) Mean: −6.7*** mM
[1]; Study 1, db/db mice, 10 nM/kg s.c., 72 hr
  Delta Blood Glucose (mM) Mean: −4.3*** mM
[1]; [5]
  Body Wt. Change (%) 96 hr. vs. Baseline, Mean: −4.2*** %
  Delta Blood Glucose (mM) Mean: −2.2*** mM
[1]; [6]
  Cumulative food Intake (g) 0-48 hr. vs. Baseline, Mean: 3.8*** g
  Cumulative food Intake (g) 0-96 hr. vs. Baseline, Mean: 12.5*** g
[1]; Study 2, db/db mice, 10 nM/kg s.c. single dose, 0 hr (baseline)
  Delta Blood Glucose (mM) Mean: 0 mM
[1]; Study 2, db/db mice, 10 nM/kg s.c. single dose, 4 hr
  Delta Blood Glucose (mM) Mean: −10.0*** mM
[1]; Study 2, db/db mice, 10 nM/kg s.c. single dose, 8 hr
  Delta Blood Glucose (mM) Mean: −13.5*** mM
[1]; Study 2, db/db mice, 10 nM/kg s.c. single dose, 12 hr
  Delta Blood Glucose (mM) Mean: −12.3*** mM
[1]; Study 2, db/db mice, 10 nM/kg s.c. single dose, 24 hr
  Delta Blood Glucose (mM) Mean: −11.5*** mM
[1]; [7]
  Body Wt. Change (%) 48 hr. vs. Baseline, Mean: −5.1*** %
  Delta Blood Glucose (mM) Mean: −7.9*** mM
[1]; Study 2, db/db mice, 10 nM/kg s.c. single dose, 72 hr
  Delta Blood Glucose (mM) Mean: −4.3** mM
[1]; [8]
  Body Wt. Change (%) 96 hr. vs. Baseline, Mean: −3.5*** %
  Delta Blood Glucose (mM) Mean: -1.4 mM
[1]; db/db mice, 10 nM/kg s.c., same concentration as tirzepatide
  effect on blood glucose reduction compared with tirzepatide: superior to tirzepatide
[1]; [9]
  blood glucose reduction: statistically significant blood glucose reduction upto 96 hr post treatment
  body weight reduction: statistically significant body weight reduction which was comparable to tirzepatide
  reduction in food consumption: significant reduction in food consumption which was comparable to tirzepatide
[2]; 3 nM/kg and 20 nM/kg s.c.
  glucose lowering effect: dose dependent improvement in glucose lowering effect upto 72 hours
  glucose lowering effect compared with tirzepatide: superior to tirzepatide at similar dosage
[2]; 3 nM/kg s.c.
  Cumulative Food Intake (g), 0-72 hr, Mean: 10.2*** g
[2]; 3 nM/kg s.c., 0 hr (baseline)
  Delta Blood Glucose (mM) Mean: 0.0 mM
[2]; 3 nM/kg s.c., 4 hr
  Delta Blood Glucose (mM) Mean: −8.9*** mM
[2]; 3 nM/kg s.c., 24 hr
  Delta Blood Glucose (mM) Mean: −9.9*** mM
[2]; 3 nM/kg s.c., 48 hr
  Delta Blood Glucose (mM) Mean: −5.8** mM
[2]; 3 nM/kg s.c., 72 hr
  Body weight change (%) 72 hr vs. Baseline, Mean: −4.0*** %
  Delta Blood Glucose (mM) Mean: -3.2 mM
[2]; 20 nM/kg s.c.
  Cumulative Food Intake (g), 0-72 hr, Mean: 6.3*** g
[2]; 20 nM/kg s.c., 0 hr (baseline)
  Delta Blood Glucose (mM) Mean: 0.0 mM
[2]; 20 nM/kg s.c., 4 hr
  Delta Blood Glucose (mM) Mean: −13.7*** mM
[2]; 20 nM/kg s.c., 24 hr
  Delta Blood Glucose (mM) Mean: −13.6*** mM
[2]; 20 nM/kg s.c., 48 hr
  Delta Blood Glucose (mM) Mean: −14.0*** mM
[2]; 20 nM/kg s.c., 72 hr
  Body weight change (%) 72 hr vs. Baseline, Mean: −6.2*** %
  Delta Blood Glucose (mM) Mean: −7.9*** mM
[2]; 3 and 20 nM/kg
  effect on body weight: significant, dose dependent and comparable to tirzepatide
  effect on food intake: significant, dose dependent and comparable to tirzepatide
